The supplement of paper PMC10307832

What was measured:
Assay in all cases: relative viability (nuclei count vs DMSO), 5 days (fraction); higher = more cells survive
NCI-H1651 = tested on: NCI-H1651
Summary of the method: (§1)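 One day after seeding in 1536-well plates, lung cancer cell lines were dosed by pin tool. Dosing was either single-drug or a fixed anchor-drug dose plus five library-drug doses (not always all listed) in √10 steps. After 5 days, nuclei were stained in one fix-and-stain step and counted on 4× images, and relative viability is the nuclei count of treated wells over that of vehicle wells, given as the median of duplicate plates.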

PC-3 [JPC-3] = tested on: PC-3 [JPC-3]
Summary of the method: as §1

LOU-NH91 = tested on: LOU-NH91
Summary of the method: as §1

SK-LU-1 = tested on: SK-LU-1
Summary of the method: as §1

NCI-H1944 = tested on: NCI-H1944
Summary of the method: as §1

NCI-H1437 = tested on: NCI-H1437
Summary of the method: as §1

NCI-H1734 = tested on: NCI-H1734
Summary of the method: as §1

NCI-H2170 = tested on: NCI-H2170
Summary of the method: as §1

201T = tested on: 201T
Summary of the method: as §1

NCI-H322M = tested on: NCI-H322M
Summary of the method: as §1

NCI-H596 = tested on: NCI-H596
Summary of the method: as §1

LK-2 = tested on: LK-2
Summary of the method: as §1

NCI-H2228 = tested on: NCI-H2228
Summary of the method: as §1

PC-14 = tested on: PC-14
Summary of the method: as §1

HCC-78 = tested on: HCC-78
Summary of the method: as §1

NCI-H2087 = tested on: NCI-H2087
Summary of the method: as §1

HCC-366 = tested on: HCC-366
Summary of the method: as §1

ABC-1 = tested on: ABC-1
Summary of the method: as §1

NCI-H647 = tested on: NCI-H647
Summary of the method: as §1

NCI-H2023 = tested on: NCI-H2023
Summary of the method: as §1

NCI-H2085 = tested on: NCI-H2085
Summary of the method: as §1

Molecule `Nc1cccc2c1CN(C1CCC(=O)NC1=O)C2=O` (configuration not stated) [Lenalidomide] + Cc1nc(Nc2ncc(C(=O)Nc3c(C)cccc3Cl)s2)cc(N2CCN(CCO)CC2)n1 [Dasatinib] (partner 0.075 µM) has a relative viability (NCI-H1651; first compound 0.253 µM) of 0.386, a relative viability (NCI-H1651; first compound 0.8 µM) of 0.419 and a relative viability (NCI-H1651; first compound 2.53 µM) of 0.617. It also gave a relative viability (NCI-H1651; first compound 8 µM) of 0.375, a relative viability (PC-3 [JPC-3]; first compound 0.253 µM) of 1 and a relative viability (PC-3 [JPC-3]; first compound 0.8 µM) of 0.901. The relative viability (PC-3 [JPC-3]; first compound 2.53 µM) was 1.08, the relative viability (PC-3 [JPC-3]; first compound 8 µM) was 1.04 and the relative viability (LOU-NH91; first compound 0.253 µM) was 0.558. The relative viability (LOU-NH91; first compound 0.8 µM) was 0.435, the relative viability (LOU-NH91; first compound 2.53 µM) was 0.555 and the relative viability (LOU-NH91; first compound 8 µM) was 0.456. For the same molecule, the relative viability (SK-LU-1; first compound 0.253 µM) was 0.175, the relative viability (SK-LU-1; first compound 0.8 µM) was 0.206 and the relative viability (SK-LU-1; first compound 2.53 µM) was 0.178. It also gave a relative viability (SK-LU-1; first compound 8 µM) of 0.143, a relative viability (NCI-H1944; first compound 0.253 µM) of 0.239 and a relative viability (NCI-H1944; first compound 0.8 µM) of 0.251. It also gave a relative viability (NCI-H1944; first compound 2.53 µM) of 0.208, a relative viability (NCI-H1944; first compound 8 µM) of 0.173 and a relative viability (NCI-H1437; first compound 0.253 µM) of 0.536. It also gave a relative viability (NCI-H1437; first compound 0.8 µM) of 0.45, a relative viability (NCI-H1437; first compound 2.53 µM) of 0.485 and a relative viability (NCI-H1437; first compound 8 µM) of 0.442. For the same molecule, the relative viability (NCI-H1734; first compound 0.253 µM) was 0.506, the relative viability (NCI-H1734; first compound 0.8 µM) was 0.474 and the relative viability (NCI-H1734; first compound 2.53 µM) was 0.562. It also gave a relative viability (NCI-H1734; first compound 8 µM) of 0.4, a relative viability (NCI-H2170; first compound 0.253 µM) of 0.547 and a relative viability (NCI-H2170; first compound 0.8 µM) of 0.47. For the same molecule, the relative viability (NCI-H2170; first compound 2.53 µM) was 0.571, the relative viability (NCI-H2170; first compound 8 µM) was 0.454 and the relative viability (201T; first compound 0.253 µM) was 0.598. It also gave a relative viability (201T; first compound 2.53 µM) of 0.581, a relative viability (201T; first compound 8 µM) of 0.538 and a relative viability (NCI-H322M; first compound 0.253 µM) of 0.262. For the same molecule, the relative viability (NCI-H322M; first compound 0.8 µM) was 0.279, the relative viability (NCI-H322M; first compound 2.53 µM) was 0.254 and the relative viability (NCI-H322M; first compound 8 µM) was 0.253. For the same molecule, the relative viability (NCI-H596; first compound 0.253 µM) was 0.644, the relative viability (NCI-H596; first compound 2.53 µM) was 0.655 and the relative viability (NCI-H596; first compound 8 µM) was 0.505. The relative viability (LK-2; first compound 0.253 µM) was 0.401, the relative viability (LK-2; first compound 0.8 µM) was 0.332 and the relative viability (LK-2; first compound 2.53 µM) was 0.249. For the same molecule, the relative viability (LK-2; first compound 8 µM) was 0.172, the relative viability (NCI-H2228; first compound 0.253 µM) was 0.444 and the relative viability (NCI-H2228; first compound 0.8 µM) was 0.58. For the same molecule, the relative viability (NCI-H2228; first compound 2.53 µM) was 0.562, the relative viability (NCI-H2228; first compound 8 µM) was 0.405 and the relative viability (PC-14; first compound 0.253 µM) was 0.236. For the same molecule, the relative viability (PC-14; first compound 0.8 µM) was 0.28, the relative viability (PC-14; first compound 2.53 µM) was 0.281 and the relative viability (PC-14; first compound 8 µM) was 0.304. The relative viability (HCC-78; first compound 0.253 µM) was 0.52, the relative viability (HCC-78; first compound 0.8 µM) was 0.371 and the relative viability (HCC-78; first compound 2.53 µM) was 0.465. For the same molecule, the relative viability (HCC-78; first compound 8 µM) was 0.308, the relative viability (NCI-H2087; first compound 0.253 µM) was 0.865 and the relative viability (NCI-H2087; first compound 0.8 µM) was 0.851. For the same molecule, the relative viability (NCI-H2087; first compound 2.53 µM) was 0.928, the relative viability (NCI-H2087; first compound 8 µM) was 0.829 and the relative viability (HCC-366; first compound 0.253 µM) was 0.661. It also gave a relative viability (HCC-366; first compound 0.8 µM) of 0.622, a relative viability (HCC-366; first compound 2.53 µM) of 0.752 and a relative viability (HCC-366; first compound 8 µM) of 0.334. The relative viability (ABC-1; first compound 0.253 µM) was 0.591, the relative viability (ABC-1; first compound 0.8 µM) was 0.482 and the relative viability (ABC-1; first compound 2.53 µM) was 0.602. For the same molecule, the relative viability (ABC-1; first compound 8 µM) was 0.55, the relative viability (NCI-H647; first compound 0.253 µM) was 0.14 and the relative viability (NCI-H647; first compound 0.8 µM) was 0.176. For the same molecule, the relative viability (NCI-H647; first compound 2.53 µM) was 0.319, the relative viability (NCI-H647; first compound 8 µM) was 0.129 and the relative viability (NCI-H2023; first compound 0.253 µM) was 0.612. It also gave a relative viability (NCI-H2023; first compound 0.8 µM) of 0.515, a relative viability (NCI-H2023; first compound 2.53 µM) of 0.608 and a relative viability (NCI-H2023; first compound 8 µM) of 0.416. The relative viability (NCI-H2085; first compound 0.253 µM) was 0.253, the relative viability (NCI-H2085; first compound 0.8 µM) was 0.259 and the relative viability (NCI-H2085; first compound 2.53 µM) was 0.243. It also gave a relative viability (NCI-H2085; first compound 8 µM) of 0.214.
